How the values were obtained:
Test in all cases: KINOMEscan competition binding
Settings in all cases: compound 10.0 µM
HCK (human) = HCK (human) (UniProt P08631)
MAP2K2 (human) = MAP2K2 (human) (UniProt P36507)
ERBB2 (human) = ERBB2 (human) (UniProt P04626)
MYLK4 (human) = MYLK4 (human) (UniProt Q86YV6)
RPS6KA6 KD1 (human) = RPS6KA6 KD1 (human) (UniProt Q9UK32)
STK35 (human) = STK35 (human) (UniProt Q8TDR2)
TIE1 (human) = TIE1 (human) (UniProt P35590)
STK4 (human) = STK4 (human) (UniProt Q13043)
TLK1 (human) = TLK1 (human) (UniProt Q9UKI8)
TLK1 (human), sequence (Q9UKI8 whole entry, looked up): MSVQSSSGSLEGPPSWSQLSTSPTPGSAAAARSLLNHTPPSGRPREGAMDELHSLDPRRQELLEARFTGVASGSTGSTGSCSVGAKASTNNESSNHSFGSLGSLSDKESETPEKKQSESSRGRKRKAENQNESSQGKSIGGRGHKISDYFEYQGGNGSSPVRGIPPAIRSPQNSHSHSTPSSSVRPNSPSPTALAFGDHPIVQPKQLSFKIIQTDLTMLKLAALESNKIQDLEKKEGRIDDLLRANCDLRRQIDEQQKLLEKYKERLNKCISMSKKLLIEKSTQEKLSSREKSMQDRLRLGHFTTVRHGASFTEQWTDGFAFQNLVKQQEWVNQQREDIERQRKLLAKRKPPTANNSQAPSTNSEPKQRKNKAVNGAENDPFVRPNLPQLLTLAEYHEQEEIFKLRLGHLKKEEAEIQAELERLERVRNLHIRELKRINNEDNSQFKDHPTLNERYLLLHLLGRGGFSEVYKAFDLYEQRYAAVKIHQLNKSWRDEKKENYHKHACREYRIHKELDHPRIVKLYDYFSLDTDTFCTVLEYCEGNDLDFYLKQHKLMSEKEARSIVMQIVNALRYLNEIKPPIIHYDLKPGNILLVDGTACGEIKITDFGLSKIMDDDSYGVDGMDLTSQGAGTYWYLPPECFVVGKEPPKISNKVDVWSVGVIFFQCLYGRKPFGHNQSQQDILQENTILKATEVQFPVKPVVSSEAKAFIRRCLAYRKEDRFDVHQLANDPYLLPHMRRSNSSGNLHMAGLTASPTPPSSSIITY

BRAF (human) = BRAF (human) (UniProt P15056)
BRAF (human), sequence (P15056 whole entry, looked up): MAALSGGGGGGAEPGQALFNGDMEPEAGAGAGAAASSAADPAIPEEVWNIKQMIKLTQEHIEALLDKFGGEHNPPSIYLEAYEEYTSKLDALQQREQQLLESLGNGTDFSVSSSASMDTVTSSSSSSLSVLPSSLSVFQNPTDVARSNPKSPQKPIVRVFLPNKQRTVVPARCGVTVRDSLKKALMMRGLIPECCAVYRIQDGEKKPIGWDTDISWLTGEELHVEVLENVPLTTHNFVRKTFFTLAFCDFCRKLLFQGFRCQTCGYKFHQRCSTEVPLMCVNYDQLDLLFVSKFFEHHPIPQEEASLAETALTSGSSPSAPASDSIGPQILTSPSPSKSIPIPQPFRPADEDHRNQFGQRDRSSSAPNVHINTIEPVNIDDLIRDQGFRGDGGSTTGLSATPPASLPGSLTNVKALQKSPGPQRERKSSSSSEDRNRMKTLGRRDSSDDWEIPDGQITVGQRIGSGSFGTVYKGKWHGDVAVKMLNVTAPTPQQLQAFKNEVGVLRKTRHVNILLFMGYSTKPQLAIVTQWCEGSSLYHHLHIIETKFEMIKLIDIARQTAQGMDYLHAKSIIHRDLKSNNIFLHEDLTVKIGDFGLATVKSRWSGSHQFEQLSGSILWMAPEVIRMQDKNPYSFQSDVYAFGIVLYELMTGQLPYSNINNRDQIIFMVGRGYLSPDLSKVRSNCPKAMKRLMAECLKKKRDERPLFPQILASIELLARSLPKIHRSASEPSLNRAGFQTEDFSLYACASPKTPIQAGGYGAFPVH

MARK4 (human) = MARK4 (human) (UniProt Q96L34)
CAMK2G (human) = CAMK2G (human) (UniProt Q13555)
CAMK1G (human) = CAMK1G (human) (UniProt Q96NX5)
EPHB3 (human) = EPHB3 (human) (UniProt P54753)
SBK1 (human) = SBK1 (human) (UniProt Q52WX2)
[1] = test system: ABL1 (human), P00519 [F317I]
EPHB1 (human) = EPHB1 (human) (UniProt P54762)
AAK1 (human) = AAK1 (human) (UniProt Q2M2I8)
DCLK3 (human) = DCLK3 (human) (UniProt Q9C098)
DCLK3 (human), sequence (Q9C098 whole entry, looked up): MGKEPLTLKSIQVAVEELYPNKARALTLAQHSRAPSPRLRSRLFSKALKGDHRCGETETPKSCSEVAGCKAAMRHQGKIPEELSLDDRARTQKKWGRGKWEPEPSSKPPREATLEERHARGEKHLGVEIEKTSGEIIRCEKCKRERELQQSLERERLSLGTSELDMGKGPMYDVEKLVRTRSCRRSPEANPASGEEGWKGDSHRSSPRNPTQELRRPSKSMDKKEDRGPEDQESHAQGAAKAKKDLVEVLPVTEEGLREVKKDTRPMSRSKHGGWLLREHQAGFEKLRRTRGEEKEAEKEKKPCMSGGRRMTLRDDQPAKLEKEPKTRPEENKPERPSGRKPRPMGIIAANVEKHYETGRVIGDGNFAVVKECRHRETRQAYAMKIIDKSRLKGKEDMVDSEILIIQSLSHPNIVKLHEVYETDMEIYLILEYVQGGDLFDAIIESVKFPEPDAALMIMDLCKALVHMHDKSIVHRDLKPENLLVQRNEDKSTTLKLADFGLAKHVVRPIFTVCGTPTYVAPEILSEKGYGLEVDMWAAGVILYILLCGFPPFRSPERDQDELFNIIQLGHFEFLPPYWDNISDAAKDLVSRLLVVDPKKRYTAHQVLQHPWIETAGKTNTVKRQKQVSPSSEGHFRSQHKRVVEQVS

PRKACA (human) = PRKACA (human) (UniProt P17612)
STK36 (human) = STK36 (human) (UniProt Q9NRP7)
PIK3CG (human) = PIK3CG (human) (UniProt P48736)
SYK (human) = SYK (human) (UniProt P43405)
BRSK1 (human) = BRSK1 (human) (UniProt Q8TDC3)
ULK1 (human) = ULK1 (human) (UniProt O75385)
EPHA4 (human) = EPHA4 (human) (UniProt P54764)
MAPK3 (human) = MAPK3 (human) (UniProt P27361)
TNK2 (human) = TNK2 (human) (UniProt Q07912)
TNK2 (human), sequence (Q07912 whole entry, looked up): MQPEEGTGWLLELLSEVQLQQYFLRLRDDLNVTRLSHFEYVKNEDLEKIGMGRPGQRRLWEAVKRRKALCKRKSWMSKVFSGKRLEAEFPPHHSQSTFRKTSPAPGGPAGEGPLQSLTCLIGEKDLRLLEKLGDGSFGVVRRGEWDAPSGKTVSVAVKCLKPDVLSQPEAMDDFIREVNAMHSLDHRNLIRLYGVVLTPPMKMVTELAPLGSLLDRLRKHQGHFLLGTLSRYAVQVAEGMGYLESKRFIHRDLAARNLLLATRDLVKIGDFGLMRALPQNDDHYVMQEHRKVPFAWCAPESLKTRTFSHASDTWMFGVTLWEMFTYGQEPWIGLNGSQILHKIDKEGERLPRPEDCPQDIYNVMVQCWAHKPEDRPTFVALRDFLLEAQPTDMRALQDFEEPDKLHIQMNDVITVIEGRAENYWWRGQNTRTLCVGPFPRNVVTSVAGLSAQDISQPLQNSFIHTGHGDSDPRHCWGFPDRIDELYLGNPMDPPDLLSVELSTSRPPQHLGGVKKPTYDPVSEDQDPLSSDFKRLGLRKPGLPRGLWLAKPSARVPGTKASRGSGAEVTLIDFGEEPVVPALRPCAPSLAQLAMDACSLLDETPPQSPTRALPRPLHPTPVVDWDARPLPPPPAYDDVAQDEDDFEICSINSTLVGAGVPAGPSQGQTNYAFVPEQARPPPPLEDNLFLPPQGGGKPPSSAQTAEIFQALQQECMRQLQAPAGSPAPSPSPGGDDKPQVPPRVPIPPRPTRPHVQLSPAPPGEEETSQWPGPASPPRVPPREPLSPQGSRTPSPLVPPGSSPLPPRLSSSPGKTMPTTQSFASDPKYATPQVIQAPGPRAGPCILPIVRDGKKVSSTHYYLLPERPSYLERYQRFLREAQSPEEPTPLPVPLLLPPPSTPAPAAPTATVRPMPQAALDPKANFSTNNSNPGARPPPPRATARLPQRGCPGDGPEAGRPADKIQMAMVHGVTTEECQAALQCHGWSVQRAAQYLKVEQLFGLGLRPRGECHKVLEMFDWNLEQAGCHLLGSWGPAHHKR

STK38 (human) = STK38 (human) (UniProt Q15208)
GRK1 (human) = GRK1 (human) (UniProt Q15835)
GRK1 (human), sequence (Q15835 whole entry, looked up): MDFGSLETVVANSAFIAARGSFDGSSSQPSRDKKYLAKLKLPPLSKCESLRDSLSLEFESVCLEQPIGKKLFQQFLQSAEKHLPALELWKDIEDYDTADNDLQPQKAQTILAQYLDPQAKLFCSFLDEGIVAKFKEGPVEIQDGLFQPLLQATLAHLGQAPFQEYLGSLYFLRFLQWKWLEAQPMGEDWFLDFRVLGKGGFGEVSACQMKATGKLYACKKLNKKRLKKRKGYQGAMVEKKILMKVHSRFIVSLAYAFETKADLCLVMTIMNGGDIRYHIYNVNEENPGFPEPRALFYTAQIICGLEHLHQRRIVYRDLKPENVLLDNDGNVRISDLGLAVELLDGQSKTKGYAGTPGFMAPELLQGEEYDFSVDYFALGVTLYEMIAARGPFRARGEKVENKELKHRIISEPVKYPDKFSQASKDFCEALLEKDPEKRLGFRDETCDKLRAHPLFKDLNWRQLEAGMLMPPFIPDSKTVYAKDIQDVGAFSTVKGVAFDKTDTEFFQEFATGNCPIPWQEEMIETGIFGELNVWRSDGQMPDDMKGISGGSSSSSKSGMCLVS

[2] = test system: ABL1 (human), P00519 [M351T]
ACVR1B (human) = ACVR1B (human) (UniProt P36896)
BTK (human) = BTK (human) (UniProt Q06187)
HUNK (human) = HUNK (human) (UniProt P57058)
EPHB6 (human) = EPHB6 (human) (UniProt O15197)
[3] = test system: KIT (human), P10721 [L576P]
[4] = test system: FLT3 (human), P36888 [K663Q]
[5] = test system: KIT (human), P10721 [V559D]
EPHB4 (human) = EPHB4 (human) (UniProt P54760)
RPS6KA2 KD2 (human) = RPS6KA2 KD2 (human) (UniProt Q15349)
CaMK1 (human) = CaMK1 (human) (UniProt Q14012)
TNNI3K (human) = TNNI3K (human) (UniProt Q59H18)

STK35 (human), sequence (Q8TDR2 whole entry, looked up): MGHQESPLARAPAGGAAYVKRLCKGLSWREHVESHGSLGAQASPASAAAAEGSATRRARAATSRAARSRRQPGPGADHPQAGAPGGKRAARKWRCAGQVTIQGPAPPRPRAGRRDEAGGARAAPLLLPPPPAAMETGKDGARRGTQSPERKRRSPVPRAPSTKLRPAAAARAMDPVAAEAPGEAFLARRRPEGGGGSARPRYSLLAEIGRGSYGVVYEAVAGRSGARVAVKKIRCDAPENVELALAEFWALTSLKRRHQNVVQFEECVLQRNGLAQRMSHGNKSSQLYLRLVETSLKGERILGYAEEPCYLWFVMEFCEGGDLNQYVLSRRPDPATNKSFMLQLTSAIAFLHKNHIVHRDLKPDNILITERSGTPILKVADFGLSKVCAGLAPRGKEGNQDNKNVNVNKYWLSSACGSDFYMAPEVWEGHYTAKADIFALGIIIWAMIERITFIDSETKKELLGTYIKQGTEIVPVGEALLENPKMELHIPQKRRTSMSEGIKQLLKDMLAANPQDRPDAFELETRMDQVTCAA
MYLK4 (human), sequence (Q86YV6 whole entry, looked up): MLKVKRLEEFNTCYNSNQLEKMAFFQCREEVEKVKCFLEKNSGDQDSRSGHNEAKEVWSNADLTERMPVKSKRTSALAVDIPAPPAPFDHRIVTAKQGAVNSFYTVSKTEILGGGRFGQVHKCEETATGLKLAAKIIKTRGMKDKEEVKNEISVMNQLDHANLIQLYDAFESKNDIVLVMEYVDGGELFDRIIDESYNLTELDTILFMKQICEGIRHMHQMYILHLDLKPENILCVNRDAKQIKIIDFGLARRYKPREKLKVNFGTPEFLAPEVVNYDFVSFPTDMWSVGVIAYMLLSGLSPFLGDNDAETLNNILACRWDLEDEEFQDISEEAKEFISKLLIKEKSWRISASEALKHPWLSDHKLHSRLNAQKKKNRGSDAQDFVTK

Cc1cnc(-c2cnc(NCCNc3ccc(C#N)cn3)nc2-c2ccc(Cl)cc2Cl)[nH]1
kinase still bound, per cent of control (HCK (human)): 100% | kinase still bound, per cent of control (MAP2K2 (human)): 100% | kinase still bound, per cent of control (ERBB2 (human)): 100% | kinase still bound, per cent of control (MYLK4 (human)): 98% | kinase still bound, per cent of control (RPS6KA6 KD1 (human)): 89% | kinase still bound, per cent of control (STK35 (human)): 100% | kinase still bound, per cent of control (TIE1 (human)): 100% | kinase still bound, per cent of control (STK4 (human)): 100% | kinase still bound, per cent of control (TLK1 (human)): 75% | kinase still bound, per cent of control (BRAF (human)): 50% | kinase still bound, per cent of control (MARK4 (human)): 100% | kinase still bound, per cent of control (CAMK2G (human)): 100% | kinase still bound, per cent of control (CAMK1G (human)): 100% | kinase still bound, per cent of control (EPHB3 (human)): 100% | kinase still bound, per cent of control (SBK1 (human)): 100% | kinase still bound, per cent of control [1]: 100% | kinase still bound, per cent of control (EPHB1 (human)): 96% | kinase still bound, per cent of control (AAK1 (human)): 100% | kinase still bound, per cent of control (DCLK3 (human)): 34% | kinase still bound, per cent of control (PRKACA (human)): 100% | kinase still bound, per cent of control (STK36 (human)): 42% | kinase still bound, per cent of control (PIK3CG (human)): 14% | kinase still bound, per cent of control (SYK (human)): 100% | kinase still bound, per cent of control (BRSK1 (human)): 100% | kinase still bound, per cent of control (ULK1 (human)): 94% | kinase still bound, per cent of control (EPHA4 (human)): 100% | kinase still bound, per cent of control (MAPK3 (human)): 100% | kinase still bound, per cent of control (TNK2 (human)): 100% | kinase still bound, per cent of control (STK38 (human)): 100% | kinase still bound, per cent of control (GRK1 (human)): 96% | kinase still bound, per cent of control [2]: 99% | kinase still bound, per cent of control (ACVR1B (human)): 100% | kinase still bound, per cent of control (BTK (human)): 100% | kinase still bound, per cent of control (HUNK (human)): 100% | kinase still bound, per cent of control (EPHB6 (human)): 100% | kinase still bound, per cent of control [3]: 92% | kinase still bound, per cent of control [4]: 78% | kinase still bound, per cent of control [5]: 100% | kinase still bound, per cent of control (EPHB4 (human)): 100% | kinase still bound, per cent of control (RPS6KA2 KD2 (human)): 100% | kinase still bound, per cent of control (CaMK1 (human)): 100% | kinase still bound, per cent of control (TNNI3K (human)): 100%

COc1ccc(CNC(=O)Nc2ncc([N+](=O)[O-])s2)cc1
kinase still bound, per cent of control (HCK (human)): 100% | kinase still bound, per cent of control (MAP2K2 (human)): 100% | kinase still bound, per cent of control (ERBB2 (human)): 95% | kinase still bound, per cent of control (MYLK4 (human)): 91% | kinase still bound, per cent of control (RPS6KA6 KD1 (human)): 100% | kinase still bound, per cent of control (STK35 (human)): 87% | kinase still bound, per cent of control (TIE1 (human)): 100% | kinase still bound, per cent of control (STK4 (human)): 100% | kinase still bound, per cent of control (TLK1 (human)): 96% | kinase still bound, per cent of control (BRAF (human)): 57% | kinase still bound, per cent of control (MARK4 (human)): 100% | kinase still bound, per cent of control (CAMK2G (human)): 100% | kinase still bound, per cent of control (CAMK1G (human)): 100% | kinase still bound, per cent of control (EPHB3 (human)): 100% | kinase still bound, per cent of control (SBK1 (human)): 100% | kinase still bound, per cent of control [1]: 100% | kinase still bound, per cent of control (EPHB1 (human)): 85% | kinase still bound, per cent of control (AAK1 (human)): 100% | kinase still bound, per cent of control (DCLK3 (human)): 66% | kinase still bound, per cent of control (PRKACA (human)): 96% | kinase still bound, per cent of control (STK36 (human)): 100% | kinase still bound, per cent of control (PIK3CG (human)): 100% | kinase still bound, per cent of control (SYK (human)): 100% | kinase still bound, per cent of control (BRSK1 (human)): 100% | kinase still bound, per cent of control (ULK1 (human)): 100% | kinase still bound, per cent of control (EPHA4 (human)): 100% | kinase still bound, per cent of control (MAPK3 (human)): 100% | kinase still bound, per cent of control (TNK2 (human)): 96% | kinase still bound, per cent of control (STK38 (human)): 100% | kinase still bound, per cent of control (GRK1 (human)): 100% | kinase still bound, per cent of control [2]: 63% | kinase still bound, per cent of control (ACVR1B (human)): 86% | kinase still bound, per cent of control (BTK (human)): 100% | kinase still bound, per cent of control (HUNK (human)): 81% | kinase still bound, per cent of control (EPHB6 (human)): 100% | kinase still bound, per cent of control [3]: 97% | kinase still bound, per cent of control [4]: 70% | kinase still bound, per cent of control [5]: 3.6% | kinase still bound, per cent of control (EPHB4 (human)): 100% | kinase still bound, per cent of control (RPS6KA2 KD2 (human)): 83% | kinase still bound, per cent of control (CaMK1 (human)): 100% | kinase still bound, per cent of control (TNNI3K (human)): 100%

Source: the kinase profiling compilation of Christmann-Franck et al. (2016)
